Data on 1 compound can be found in US20250188088A1, “COMPOUND AND USE THEREOF” (ONQUALITY PHARMACEUTICALS CHINA LTD., priority 2022, published 2025).

Converted amounts (≈) assume the structure as drawn. Read-outs that look alike come from different tables or passages of the source.

The nature of series [1]: Thermodynamic solubility assay (PBS pH 6.5; isopropyl myristate). It counts as physicochemical. The settings on record: thermodynamic from solid. Here is the method: Thermodynamic Solubility Assay
Weigh not less than 2 mg of the sample powder into a Whatman Mini-UniPrep vial. If it is required to test the thermodynamic solubility of samples in multiple buffers, a separate vial is needed for each test; add 450 μL of buffer to each Whatman Mini-UniPrep vial, respectively; after that, install the piston cap of Whatman Mini-UniPrep and press it above the liquid level, so that the filter is in contact with the buffer during shaking; shake the solubility sample by vortexing for 1 minute.
Inject 3 UV standard solutions from low to high concentrations into the HPLC, then inject the diluent and supernatant of the test compound, with two replicates of test sample; and integrate the UV peaks. Simulate a standard curve and calculate the thermodynamic solubility of the sample.

Series [2] relates to rash caused by small molecule EGFR inhibitors. Description: Prevention of rash caused by small molecule EGFR inhibitors, topical ointment, rat model. It counts as in vivo, SD rats. The procedure, abridged:
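Female SD rats (~200 g, dorsal hair shaved, 10/group) dosed daily by gavage with small-molecule EGFR inhibitors; compound ointment or blank matrix applied once daily to ~3 cm×3 cm of back, left 4 h, then wiped off. Repeated until obvious rash in controls; control rate = % of treated rats with milder rash than controls.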

Take `C[C@@H]1CCN(C(=O)CC#N)C[C@@H]1N(C)c1ncnc2c1ccn2C(=O)N(C)CCOC(=O)C1CCCO1` (stereo partly drawn) [Compound A7]: the solubility (thermodynamic) (in general, the concentration in solution at equilibrium with solid) at 24 h amounted to 4390 µg/mL (≈ 8.58 mM) in series [1] (aqueous buffer, PBS buffer pH 6.5, about 25° C., read-out: Thermodynamic Solubility pH = 6.5) and 375 µg/mL (≈ 0.733 mM) in series [1] (oil or lipid, isopropyl myristate as vehicle, about 25° C., read-out: Thermodynamic Solubility in Isopropyl Myristate). Also, the “Control Rate” value in series [2] (Afatinib 40 mg/kg once a day, ointment 0.1 wt% once a day, 14 days) was found to be 20%; in series [2] (Afatinib 40 mg/kg once a day, ointment 0.3 wt% once a day, 14 days), 50%; in series [2] (Afatinib 40 mg/kg once a day, ointment 1.0 wt% once a day, 14 days) it was 70%; in series [2] (Afatinib 40 mg/kg once a day, ointment 3.0 wt% once a day, 14 days), 75%; in series [2] (Afatinib 40 mg/kg once a day, ointment 5.0 wt% once a day, 14 days), 80%; in series [2] (Afatinib 40 mg/kg once a day, ointment 10.0 wt% once a day, 14 days), 60%. For the same compound, the “Control Rate” value in series [2] (Dacomitinib 10 mg/kg once a day, ointment 1.0 wt% once a day, 12 days) worked out at 40%; in series [2] (Dacomitinib 10 mg/kg once a day, ointment 5.0 wt% once a day, 12 days), 80%; in series [2] (EAI045 80 mg/kg once a day, ointment 1.0 wt% once a day, 11 days) it was 30%; in series [2] (EAI045 80 mg/kg once a day, ointment 10.0 wt% once a day, 11 days), 60%; in series [2] (Gefitinib 80 mg/kg twice a day, ointment 0.3 wt% once a day, 15 days), 10%; in series [2] (Gefitinib 80 mg/kg twice a day, ointment 1.0 wt% once a day, 15 days) it was 50%. The “Control Rate” value in series [2] (Gefitinib 80 mg/kg twice a day, ointment 3.0 wt% once a day, 15 days) worked out at 60%; in series [2] (Gefitinib 80 mg/kg twice a day, ointment 5.0 wt% once a day, 15 days) it was 60%; in series [2] (Osimertinib 60 mg/kg twice a day, ointment 0.3 wt% once a day, 10 days) it was 20%; in series [2] (Osimertinib 60 mg/kg twice a day, ointment 5.0 wt% once a day, 10 days), 70%.
